{"source": "patent US7655434B2", "about": "“Live-cell biosensor polypeptides and methods of use” (The Board of Trustees of the Leland Stanford Junior …, priority 2004, dated 2010)", "key": {"RBL-FMB cells [1]": {"test_system": "RBL-FMB cells", "experiment": "TIRF based mitosis monitoring system, cells treated with TAXOL", "type": "cell-based, rat", "method": "Rat Basophilic Leukemia Cells (RBL) were grown in Dulbecco's modified Eagles Media (DMEM) supplemented with 10% fetal calf serum, 2 mM glutamine, 100 U/ml penicillin, and 100 μg/ml streptomycin (all from Invitrogen, Carlsbad, Calif.). 10 million cells were electroporated (BioRad, Hercules, Calif.) in 600 μl of media with 40 μg of pFMB. These were allowed to recover for 48 hours and cells stably expressing the biosensor were selected for by the addition of 1 μg/ml Geneticin (Invitrogen, Carlsbad, Calif.). 10 days after the addition of Geneticin the cells were sorted based on EYFP fluorescence using a fluorescence activated cell sorter.\nTIRF microscopy was carried out as described previously (Tengholm et al., Science's Stke. 2003 PL4 (2004)). Briefly, an argon-ion laser provided 514-nm laser light for excitation of the biosensor (Lexel Laser, Fremont, Calif.). Exposure of the RBL-FMBs to laser light was controlled by a Uniblitz shutter (Vincent, Rochester, N.Y.). Laser light homogenized with a rotating diffuser (Physical Optics, Torrance, Calif.) was refocused onto a dove prism at an angle yielding total internal reflection (>[…] for a glass-water interface at 37° C.). The excitation light could also be redirected to the back of the microscope and down to the sample via appropriate dichroic mirrors (Chroma Technology, Brattleboro, Vt.) for epi-illumination. Fluorescence was recorded at 530 nm with bandpass interference filters (30-50 nm half-bandwidth; Chroma Technology, Brattleboro, Vt.) mounted in a Sutter Lambda 10-2 filter wheel (Sutter Instrument, Novato, Calif.). Images were captured every 2 minutes with a cooled CCD camera (Micromax; Roper Scientific, Tuscon, Azir.). The shutters, filter wheel, and camera were controlled by Metamorph software (Universal Imaging, Downington, Pa.).\nBoth systems were heated with an ASI 400 Air Stream Incubator (Nevtek, Burnsville, Va.). The cells were perfused with fresh growth media saturated with 10% CO2 that was heated with an inline solution heater (Warner Instruments, Hamden, Conn.).\nMetamorph software (Universal Imaging, Downington Pa.) was used for data image analysis. Fluorescence intensity was recorded over the entire stack of images by drawing regions of interest over each mitotic cell. Background correction was performed by subtracting the intensity of a background region of identical size next to each cell to account for the somewhat uneven background in the field of view over the time of the data collection. Background corrected intensity values were exported to a Microsoft Excel file and plotted. NEB was determined as the time just prior to the dramatic increase in fluorescence intensity. Anaphase onset is defined as the time point immediately preceding the second smaller increase in fluorescence. NER was determined as the point in time when fluorescence intensity starts to decrease back to baseline levels."}, "RBL-FMB cells [2]": {"test_system": "RBL-FMB cells", "experiment": "Mitotic index by immunofluorescence", "type": "cell-based, rat", "conditions": "20 hours", "method": "Mitotic index was determined as previously described (Jordan et al., […] 56:816-825 (1996)). Briefly, 15,000 RBL-FMB cells plated in 8 well Labtek chambers (Nalge Nunc, Naperville, Ill.) and exposed to paclitaxel (Sigma Aldrich, St Louis) for 20 hours. The cells were fixed and permeablized with −20° C. cold methanol for 5 minutes at −20° C. They were blocked with 10% fetal calf serum in PBS for 10 minutes at RT. Alpha Tubulin was detected with a mouse monoclonal antibody clone GTU-88 (Sigma Aldrich, St. Louis Mo.). DNA was stained with Hoescht 33342 (Molecular Probes, Eugene, Oreg.). Only cells that were clearly in metaphase or anaphase were counted as a percentage of the total. The cells were imaged with a Zeiss epifluorescence microscope (Carl Zeiss, Germany)."}, "Hela cells": {"test_system": "Hela cells", "conditions": "cited from earlier work"}}}
{"smiles": "CC(=O)O[C@H]1C(=O)[C@@]2(C)[C@H]([C@H](OC(=O)c3ccccc3)[C@]3(O)C[C@H](OC(=O)[C@H](O)[C@@H](NC(=O)c4ccccc4)c4ccccc4)C(C)=C1C3(C)C)[C@]1(OC(C)=O)CO[C@@H]1C[C@@H]2O", "note": "[TAXOL™, paclitaxel]", "values": [{"measurement": "Mitotic arrest", "setting": "RBL-FMB cells [1]; 10 nM", "value": "arrested for the duration of the experiment"}, {"measurement": "Anaphase-NER Ave.", "setting": "RBL-FMB cells [1]; [Taxol] 0.01", "value": 8.4, "unit": "min"}, {"measurement": "Anaphase-NER Med.", "setting": "RBL-FMB cells [1]; [Taxol] 0.01", "value": 8, "unit": "min"}, {"measurement": "NEB-NER Med.", "setting": "RBL-FMB cells [1]; [Taxol] 0.01", "value": 34, "unit": "min"}, {"measurement": "NEB-anaphase Ave.", "setting": "RBL-FMB cells [1]; [Taxol] 0.01", "value": 28.4, "unit": "min"}, {"measurement": "NEB-anaphase Med.", "setting": "RBL-FMB cells [1]; [Taxol] 0.01", "value": 26, "unit": "min"}, {"measurement": "NEB-NER Ave.", "setting": "RBL-FMB cells [1]; [Taxol] 0.01 (10 pM in text)", "value": 35.6, "unit": "min"}, {"measurement": "Anaphase-NER Ave.", "setting": "RBL-FMB cells [1]; [Taxol] 0.1", "value": 8.8, "unit": "min"}, {"measurement": "Anaphase-NER Med.", "setting": "RBL-FMB cells [1]; [Taxol] 0.1", "value": 8, "unit": "min"}, {"measurement": "NEB-NER Ave.", "setting": "RBL-FMB cells [1]; [Taxol] 0.1", "value": 38.1, "unit": "min"}, {"measurement": "NEB-NER Med.", "setting": "RBL-FMB cells [1]; [Taxol] 0.1", "value": 36, "unit": "min"}, {"measurement": "NEB-anaphase Ave.", "setting": "RBL-FMB cells [1]; [Taxol] 0.1", "value": 29.6, "unit": "min"}, {"measurement": "NEB-anaphase Med.", "setting": "RBL-FMB cells [1]; [Taxol] 0.1", "value": 26, "unit": "min"}, {"measurement": "Anaphase-NER Ave.", "setting": "RBL-FMB cells [1]; [Taxol] 1", "value": 10.3, "unit": "min"}, {"measurement": "Anaphase-NER Med.", "setting": "RBL-FMB cells [1]; [Taxol] 1", "value": 10, "unit": "min"}, {"measurement": "NEB-NER Ave.", "setting": "RBL-FMB cells [1]; [Taxol] 1", "value": 40.0, "unit": "min"}, {"measurement": "NEB-NER Med.", "setting": "RBL-FMB cells [1]; [Taxol] 1", "value": 38, "unit": "min"}, {"measurement": "NEB-anaphase Ave.", "setting": "RBL-FMB cells [1]; [Taxol] 1", "value": 29.8, "unit": "min"}, {"measurement": "NEB-anaphase Med.", "setting": "RBL-FMB cells [1]; [Taxol] 1", "value": 28, "unit": "min"}, {"measurement": "Anaphase-NER Ave.", "setting": "RBL-FMB cells [1]; [Taxol] 3", "value": 10.3, "unit": "min"}, {"measurement": "Anaphase-NER Med.", "setting": "RBL-FMB cells [1]; [Taxol] 3", "value": 8, "unit": "min"}, {"measurement": "NEB-NER Ave.", "setting": "RBL-FMB cells [1]; [Taxol] 3", "value": 62.8, "unit": "min"}, {"measurement": "NEB-NER Med.", "setting": "RBL-FMB cells [1]; [Taxol] 3", "value": 50, "unit": "min"}, {"measurement": "NEB-anaphase Ave.", "setting": "RBL-FMB cells [1]; [Taxol] 3", "value": 44.6, "unit": "min"}, {"measurement": "NEB-anaphase Med.", "setting": "RBL-FMB cells [1]; [Taxol] 3", "value": 34, "unit": "min"}, {"measurement": "Anaphase-NER Ave.", "setting": "RBL-FMB cells [1]; [Taxol] 4", "value": 9.8, "unit": "min"}, {"measurement": "Anaphase-NER Med.", "setting": "RBL-FMB cells [1]; [Taxol] 4", "value": 10, "unit": "min"}, {"measurement": "NEB-NER Ave.", "setting": "RBL-FMB cells [1]; [Taxol] 4", "value": 89.7, "unit": "min"}, {"measurement": "NEB-NER Med.", "setting": "RBL-FMB cells [1]; [Taxol] 4", "value": 70, "unit": "min"}, {"measurement": "NEB-anaphase Ave.", "setting": "RBL-FMB cells [1]; [Taxol] 4", "value": 77.7, "unit": "min"}, {"measurement": "NEB-anaphase Med.", "setting": "RBL-FMB cells [1]; [Taxol] 4", "value": 60, "unit": "min"}, {"measurement": "Anaphase-NER Ave.", "setting": "RBL-FMB cells [1]; [Taxol] 5", "value": 11.3, "unit": "min"}, {"measurement": "Anaphase-NER Med.", "setting": "RBL-FMB cells [1]; [Taxol] 5", "value": 12, "unit": "min"}, {"measurement": "NEB-NER Ave.", "setting": "RBL-FMB cells [1]; [Taxol] 5", "value": 112.2, "unit": "min"}, {"measurement": "NEB-NER Med.", "setting": "RBL-FMB cells [1]; [Taxol] 5", "value": 102, "unit": "min"}, {"measurement": "NEB-anaphase Ave.", "setting": "RBL-FMB cells [1]; [Taxol] 5", "value": 107.4, "unit": "min"}, {"measurement": "NEB-anaphase Med.", "setting": "RBL-FMB cells [1]; [Taxol] 5", "value": 114, "unit": "min"}, {"measurement": "Anaphase-NER Ave.", "setting": "RBL-FMB cells [1]; [Taxol] 6", "value": 13.3, "unit": "min"}, {"measurement": "Anaphase-NER Med.", "setting": "RBL-FMB cells [1]; [Taxol] 6", "value": 11, "unit": "min"}, {"measurement": "NEB-NER Ave.", "setting": "RBL-FMB cells [1]; [Taxol] 6", "value": 194.5, "unit": "min"}, {"measurement": "NEB-NER Med.", "setting": "RBL-FMB cells [1]; [Taxol] 6", "value": 186, "unit": "min"}, {"measurement": "NEB-anaphase Ave.", "setting": "RBL-FMB cells [1]; [Taxol] 6", "value": 183.3, "unit": "min"}, {"measurement": "NEB-anaphase Med.", "setting": "RBL-FMB cells [1]; [Taxol] 6", "value": 175, "unit": "min"}, {"measurement": "Anaphase-NER Ave.", "setting": "RBL-FMB cells [1]; [Taxol] 7.5", "value": 12.3, "unit": "min"}, {"measurement": "Anaphase-NER Med.", "setting": "RBL-FMB cells [1]; [Taxol] 7.5", "value": 12, "unit": "min"}, {"measurement": "NEB-NER Ave.", "setting": "RBL-FMB cells [1]; [Taxol] 7.5", "value": 202.1, "unit": "min"}, {"measurement": "NEB-NER Med.", "setting": "RBL-FMB cells [1]; [Taxol] 7.5", "value": 195, "unit": "min"}, {"measurement": "NEB-anaphase Ave.", "setting": "RBL-FMB cells [1]; [Taxol] 7.5", "value": 171.1, "unit": "min"}, {"measurement": "NEB-anaphase Med.", "setting": "RBL-FMB cells [1]; [Taxol] 7.5", "value": 166, "unit": "min"}, {"measurement": "Anaphase-NER Ave.", "setting": "RBL-FMB cells [1]; [Taxol] 8", "value": 12.1, "unit": "min"}, {"measurement": "Anaphase-NER Med.", "setting": "RBL-FMB cells [1]; [Taxol] 8", "value": 12, "unit": "min"}, {"measurement": "NEB-NER Ave.", "setting": "RBL-FMB cells [1]; [Taxol] 8", "value": 192.7, "unit": "min"}, {"measurement": "NEB-NER Med.", "setting": "RBL-FMB cells [1]; [Taxol] 8", "value": 189, "unit": "min"}, {"measurement": "NEB-anaphase Ave.", "setting": "RBL-FMB cells [1]; [Taxol] 8", "value": 180.3, "unit": "min"}, {"measurement": "NEB-anaphase Med.", "setting": "RBL-FMB cells [1]; [Taxol] 8", "value": 178, "unit": "min"}, {"measurement": "anaphase to NER phase (post-checkpoint)", "setting": "RBL-FMB cells [1]; increasing TAXOL", "value": "smaller and ungraded effects"}, {"measurement": "timing between NEB and anaphase (pre-checkpoint mitosis phase)", "setting": "RBL-FMB cells [1]; increasing TAXOL", "value": "significantly prolonged"}, {"measurement": "percentage of mitotic cells (mitotic index)", "setting": "RBL-FMB cells [2]; higher taxol concentrations", "value": "increased"}, {"measurement": "effects on mitotic index", "setting": "RBL-FMB cells [2]; low TAXOL concentrations", "value": "went unseen"}, {"measurement": "microtubule stabilization effect, concentration range", "setting": "Hela cells", "value": "nM concentration range"}]}
